# Test results from patent US20070154457A1, “Use of eIF-5A to kill multiple myeloma cells” (Senesco Technologies, Inc., priority 2005, published 2007).
# Starred links: 1 amine or outer side, 2 acyl side, 3 side chain; linkers in the order of their positions; H or OH if unused. Positions of bridges follow the written chain, without caps; N, C: chain ends. Non-standard residues stand in square brackets, D forms with d. Residues, ends and D or L forms follow the SMILES beside them. Chains are numbered I, II in the order given. Actinocin(9to1) = Cc1c2oc3c(C)ccc(C(=O)[*:1])c3nc-2c(C(=O)[*:2])c(N)c1=O; NMeV = CN[C@H](C(=O)O)C(C)C; Sar = CNCC(=O)O
# Experiments:
# [1] = test system: A549 lung carcinoma cells; test: Annexin/PI apoptosis by flow cytometry, A549 cells; assay type: cell-based; conditions: A549 infected with Ad-eIF5A1; JNK inhibitor II 10 μM, U1026 10 μM, Pifithrin-a 30 μM
# Description: A549 lung carcinoma cells were infected with either an adenovirus expressing LacZ (Lac) or eIF5A1 (5A). Four hours after infection, the media was replaced with media containing either DMSO, 10 μM of the p38 inhibitor SB203580 (Calbiochem), 10 μM of the JNK inhibitor II (Calbiochem), 10 μM of the MEK inhibitor U1026 (Calbiochem), or 30 μM of the p53 inhibitor Pifithrin-a (Calbiochem). Forty-eight hours later, the cells were harvested and the percentage of cells undergoing apoptosis was determined by Annexin/PI staining (BD Bioscience) followed by analysis by flow cytometry.
# p53 = test: Western blot of p53 and phosphorylated p53 in A549 cells; assay type: cell-based; conditions: A549, inhibitor added 4 hours after infection (U1026 10 μM, Pifithrin-a 30 μM)
# Description: (§1) Western blotting of lysate from A549 cells used for MAPK/SAPK pathway analysis was performed using lysate collected in MAPK lysis buffer (10 mM Tris-pH 7.4, 2% SDS, 10% glycerol). Ten micrograms of lysate was separated on 10% SDS-PAGE gels and transferred to a PVDF membrane. The membrane was blocked for one hour in 5% non-fat skim milk in PBS, washed with PBS and incubated with primary antibody at 1:1000 in 5% BSA/PBS-T overnight at 4° C. with shaking. The MAPK/SAPK antibodies (P-p38, p38, P-JNK, JNK, P-ERK, ERK, p90RSK) were purchased from Cell Signaling. The p53 antibodies used in the A549 study were also obtained from Cell Signaling and used in a similar fashion.
# A549 lung carcinoma cells were infected with either an adenovirus expressing LacZ (Lac) or eIF5A1 (5A). Four hours after infection, the media was replaced with media containing either DMSO, 10 μM of the p38 inhibitor SB203580 (Calbiochem), 10 μM of the JNK inhibitor II (Calbiochem), 10 μM of the MEK inhibitor U1026 (Calbiochem), or 30 μM of the p53 inhibitor Pifithrin-a (Calbiochem). Forty-eight hours later, the cells were treated with EGF for 30 minutes and the cell lysate was harvested. Western blots were performed on the lysate using antibodies directed against either total p53 (p53), or p53 phosphorylated on serine 15 [P-p53(ser15)], or p53 phosphorylated on 37 [P-p53(ser37)].
# [2] = test system: MAPK/SAPK signaling pathways; test: Western blot of MAPK/SAPK pathway activation in A549 cells; assay type: cell-based; conditions: A549 infected with Ad-eIF5A1 or Ad-eIF5A1(K50A), with MEK1 inhibitor
# Description: as §1
# HT-29 cells were infected with 3000 infectious units per cell and experiments with A549 cells were performed using 1500 infectious units per cell.
# eIF5A1 [3] = test: Indirect immunofluorescence localization of eIF5A1 in HT-29 cells; assay type: cell-based, human
# Description: HT-29 cells were cultured on poly-L-lysine-coated glass coverslips. Subconfluent cells were incubated for 16 hours with 200 Units of interferon gamma (IFN-γ; Roche Applied Science) followed by TNF-α (100 ng/ml; Leinco Technologies) for times varying from 10 minutes to 8 hours. Alternatively, cells were treated with 1.0 μg/ml Actinomycin D for increasing lengths of time from 30 minutes to 16 hours. The treated cells were fixed with 3% formaldehyde (methanol-free; Polysciences Inc.) for 20 minutes, washed twice for 5 minutes with PBS and once for 5 minutes with PBS containing 100 mM glycine, and permeabilized with 0.2% Triton X-100 in PBS for 4 minutes. Cells were then labeled for immunofluorescence using a standard protocol. The primary antibody was anti-eIF5A (BD Transduction Laboratories; mouse IgG) incubated at a dilution of 1:250 for 1 hour. The secondary antibody was anti-mouse IgG-AlexaFluor 488 (Molecular Probes) used at a dilution of 1:200 for 1 hour. Following antibody labeling, the nuclei were stained with Hoescht 33258, and the labeled cells were observed by fluorescent microscopy.
# eIF5A1 [4] = test: Western blot of eIF5A1 expression in normal colon fibroblasts; assay type: cell-based; conditions: 0.5 μg/ml, 24 hours
# Description: Protein for Western blotting was isolated using boiling lysis buffer [2% SDS, 50 mM Tris-HCl (pH 7.4)]. Protein concentrations were determined using the Bicinchoninic Acid Kit (Sigma). For Western blotting, 5 μg of total protein was fractionated on a 12% SDS-polyacrylamide gel and transferred to a polyvinylidene difluoride membrane. The primary antibodies used were anti-eIF5A (BD Transduction Laboratories; mouse IgG) and anti-β-actin (Oncogene; mouse IgM), both at a dilution of 1:20,000 in 5% milk. The secondary antibodies were anti-mouse IgG conjugated to horseradish peroxidase (HRP; Sigma) and anti-mouse IgM-HRP (Oncogene). Antibody-protein complexes were visualized using the enhanced chemiluminescence method (ECL, Amersham Biosciences). Following detection of eIF5A, the blots were stripped according to the protocol provided by the ECL Plus Western blotting detection system and reprobed with anti-β-actin antibody to confirm equal loading.
# eIF5A1 [5] = test: 2-D gel electrophoresis and Western blot of eIF5A1 forms in HT-29 cells; assay type: cell-based, human; conditions: HT-29, beginning 1 hour after treatment, disappearing 24 hours after treatment
# Description: For 2-D gel electrophoresis, HT-29 cell lysate was harvested in cold lysis buffer (7M Urea, 2M Thiourea, 30 mM Tris, 4% CHAPS, protease inhibitor cocktail), sonicated and cleared of debris by centrifugation. Protein concentration was determined using the Bradford method. The first dimensional isolelectric focusing was performed with the Ettan IPGphor Isoelectric Focusing System (Amersham Biosciences) according to the manufacture's instruction. Immobiline DryStrips (7 cm pH 4-7; Amersham Biosciences) were rehydrated in rehydration buffer (8M Urea, 2% CHAPS, 0.2% DTT, 0.5% pH 4-7 IPG buffer, 0.002% Bromophenol blue) along with cell lysate at room temperature for 12 hours. The isoelectric focusing was performed at 500 V for 30 min, 1000 V for 30 min, and 5000 V for 1 hour and 40 min. The protein on the IPG strip gel was then separated by SDS-PAGE and transferred to a PVDF membrane (Amersham Biosciences). Western blotting was performed using eIF5A antibody (BD Biosciences).
# HT-29 cells = test: XTT and BrdU cell proliferation assays of HT-29 cells (siRNA, GC7); assay type: cell-based, human; conditions: 50 μM for 72 hours, BrdU incorporation
# Description: HT-29 cells were transfected with siRNA on 96-well plates using Lipofectamine 2000 (Invitrogen). Metabolic activity of proliferating cells was measured with the XTT Cell Proliferation Kit (Roche Applied Science). The BrdU Cell Proliferation Kit (Roche Applied Science) was used to measure DNA synthesis following the manufacturer's protocol. For XTT assays performed following adenovirus infection, 5000 cells were plated per well in a 96-well plate. The next day cells were infected with Ad-lacZ, Ad-eIF5A1 and Ad-eIF5A1(K50A) (Ad-eIF5A1M) respectively with untreated cells as negative control and Actinomycin D treated cell as positive control. XTT substrate was added and A475 nm was measured with A690 nm as the reference.
molecule,measurement,setting,value
O=C1c2ccccc2-c2n[nH]c3cccc1c23 [JNK inhibitor II],effect of inhibitor on apoptosis induced by eIF5A1,[1],increases apoptosis
Pifithrin-a,effect of inhibitor on Ad-eIF5A1-induced accumulation and phosphorylation of p53,p53,inhibited
same,effect of inhibitor on apoptosis induced by eIF5A1,[1],decreases apoptosis
N#CC(=C(/N)Sc1ccccc1N)/C(C#N)=C(/N)Sc1ccccc1N [U1026],effect of inhibitor on Ad-eIF5A1-induced accumulation and phosphorylation of p53,p53,inhibited
same,effect of inhibitor on apoptosis induced by eIF5A1,[1],increases apoptosis
same,activation of JNK,[2],inhibited the activation of JNK
same,p38 activation,[2],increased p38 activation
"Cc1c2oc3c(C)ccc(C(=O)N[C@@H]4C(=O)N[C@H](C(C)C)C(=O)N5CCC[C@H]5C(=O)N(C)CC(=O)N(C)[C@@H](C(C)C)C(=O)O[C@@H]4C)c3nc-2c(C(=O)N[C@@H]2C(=O)N[C@H](C(C)C)C(=O)N3CCC[C@H]3C(=O)N(C)CC(=O)N(C)[C@@H](C(C)C)C(=O)O[C@@H]2C)c(N)c1=O [Actinomycin D] (I: T[dV]P[Sar][NMeV] / II: T[dV]P[Sar][NMeV]; ester I:1-I:C, II:1-II:C; linker I:N-II:N via Actinocin(9to1))",time to shift of eIF5A1 from cytoplasmic to nuclear localization,eIF5A1 [3],≤ 90 min
same,eIF5A1 protein expression,eIF5A1 [4],up-regulated
same,deoxyhypusinated form of eIF5A1,eIF5A1 [5],increase in the presence of the deoxyhypusinated form of eIF5A1
"N=C(N)NCCCCCCCN [GC7, N1-guanyl-1,7-diaminoheptane]",effect on the growth of the cells,HT-29 cells,profound effect on the growth
